Data taken from publication PMC6130518, “Investigation of the effective components of the flowers of Trollius chinensis from the perspectives of intestinal bacterial transformation and intestinal absorption” (Pharmaceutical Biology, 2017).
Entries after “also recorded” stand apart in the source; their conditions may differ.

Tests used:
[1] = tested on: activated intestinal bacteria; experiment: Intestinal bacterial transformation of AEOF; type: in vitro ADME, human; conditions: for After transformed by intestinal bacteria / Before transformed by intestinal bacteria: content in the extract; for transformation by intestinal bacteria (in words): in AEOF 15.0, 30.0, 60.0 mg/mL, up to 72 h, single person derived- or multiple people-derived intestinal bacteria; for time in which completely transformed by intestinal bacteria: in AEOF, isoquercetin to quercetin, trollioside to proglobeflowery acid
Protocol: Each 3 g of fresh feces from 3 healthy men and 3 healthy women of 23–25 years old was suspended in 200 mL of general anaerobic medium (GAM, including L-cystine hydrochloride, soluble starch, pepsin, tryptone, peptone, soy peptone, serum powder, yeast extract, beef extract, and beef liver extract powder purchased from Beijing Aoboxing Biotechnology Co., Ltd, Beijing, China) broth prepared as per a literature (Yang & Xu [2011]), respectively, and cultured in an anaerobic incubator (Shanghai Cimomedical Appliance Co., Ltd., Shanghai, China) at 37 °C for 24 h (Tsuchihashi et al. [2009]). […] Each 100 μL of the activated intestinal bacteria from the 6 volunteers were added into 11.4 mL of GAM, mixed adequately, and incubated in the same conditions as previously to obtain the mixture of activated intestinal bacteria. About 0.4513, 0.9026, and 1.8052 g of AEOF were dissolved in 30 mL of GAM on a super clean bench (Beijing Great Wall Air Purification Co. Ltd., Beijing, China), respectively, to generate the experimental groups. Then, the triplicate GAM containing AEOF was divided into 24 screw-cap test tubes, and each screw-cap test tube had 3 mL of the GAM and 100 μL of the activated intestinal bacteria and the mixture of activated intestinal bacteria, respectively. They were incubated under the same condition, and the test tubes of each concentration in triplicate were removed from the anaerobic incubator at 0, 2, 4, 6, 12, 24, 48, and 72 h. About 100 μL of the bacterial suspension was replaced with GAM to obtain the control group. The GAM absent of the AEOF was used as the blank group. […] About 300 μL of the supernatant was collected, filtered through a 0.45 μm membrane filter, and stored at −20 °C before HPLC analysis.
The HPLC analysis was performed using a Waters 1500 series (Waters Business Operations, Milford, MA) equipped with a 1525 binary HPLC pump, an on-line degasser, a manual injector and a 2489 UV/Visible detector. […] The temperature was set at 35 °C and the UV detecting wavelengths were 254 and 365 nm. The mobile phase consisted of acetonitrile (HPLC grade, Fisher Co., Pittsburgh, PA) (A) and 1.0% acetic acid (Beijing Chemical Works, Beijing, China) in purified water (v/v) (B), and the gradient elution program was as follows: 5–10% A (0–5 min), 10–20% A (5–10 min), 20–25% A (10–22 min), 25–40% A (22–35 min), 40–50% A (35–40 min), and 50–5% A (40–42 min) at a flow rate of 1.0 mL/min. The volume injected was 5 μL.

[2] = previous study, ref Liu et al. [2015]; cited from earlier work
[3] = Absorption experiment with everted gut sacs; conditions: Sprague-Dawley, rat
[4] = tested on: everted gut sacs (jejunum); experiment: Absorption experiment with everted gut sacs; conditions: for transport percentage: Everted gut sacs, AP→BL; for After transported with everted gut sacs: intestinal bacterial transformed AEOF
[5] = Transport experiment with Caco-2 cell monolayers; conditions: human; for Papp at 180 min, 10 mg/mL / Papp at 180 min, 20 mg/mL / Papp at 180 min, 30 mg/mL: Caco-2, Papp, Caco-2 cell monolayers; for Papp at 180 min, 10 mg/mL: extract 10 mg/mL; for Papp at 180 min, 20 mg/mL: extract 20 mg/mL; for Papp at 180 min, 30 mg/mL: extract 30 mg/mL
Protocol: (§1) The Caco-2 cells were cultured in the culture medium consisting of Dulbecco’s Modified Eagle Medium (DMEM, Gibco Inc., Grand Island, CA)-fetal bovine serum (FBS, Gibco Inc., Grand Island, CA)-nonessential amino acids (NEAA, Corning Costar, Cambridge, MA)-‘penicillin-streptomycin’ (Corning Costar, Cambridge, MA) (100:10:1:1, v/v/v/v) in 25 cm^2 flasks, which were incubated in 5% CO2 and constant temperature (37 °C) and humidity in the incubator. The culture medium was replaced every 2 or 3 days, and the cells were split 1:2 or 1:3 to conduct passage when they reached 80% confluence.
(§2) About 1.5 mL of the culture medium was added into the basal (BL) side of each well of the 12-well Transwell plates (insert diameter 12 mm, pore size 3.0 μm, membrane growth area 1.12 cm^2, Corning Costar, Cambridge, MA), and 0.5 mL of the Caco-2 cell suspension at the density of 2.0 × 10^5 cells/mL was seeded into the apical (AP) side of each insert. The cells were incubated in 5% CO2 and constant temperature (37 °C) and humidity in the incubator. The culture medium in both AP and BL sides was replaced every other day in the first week, then that in AP side was replaced every day and that in BL side was replaced every other day. The cells would differentiate and form a confluent monolayer. The integrity and viability of the cell monolayers were evaluated by measuring transepithelial electrical resistance (TEER) values in the culture medium at 37 °C using a Millicell®-ERS system (Millipore Corp., Bedford, MA), and only the inserts with the TEER above 600 Ω/cm^2 on day 21 were selected to perform the transport experiment.
(§3) About 200 μL of the solution in the receiving chambers was collected at 30, 60, 90, 120, 150, and 180 min, respectively, and then the same volume of HBSS was added. All samples were stored at −20 °C and filtered through a 0.45 μm membrane filter for HPLC analysis.
(§4) The HPLC conditions used for the analysis of the intestinal bacterial transformed AEOF before and after transport experiment was the same as above.
(§5) The transport percentage (%) was calculated using the formula transport percentage (%) = dQ/(C0 × V) × 100, wherein, V (mL) represented the volume of the donor compartment.

Caco-2 cell monolayers = experiment: Transport experiment with Caco-2 cell monolayers; conditions: for transport percentage: Caco-2 cell monolayers; for After transported with Caco-2 cell monolayers: intestinal bacterial transformed AEOF
Protocol: as §1, §2, §3, §4, §5

[6] = first of three lines per compound (lowest extract concentration)
[7] = first of three lines per compound (lowest extract concentration; AEOF 15, 30, 60 mg/mL)
[8] = second of three lines per compound (middle extract concentration, not given)
[9] = third of three lines per compound (highest extract concentration, not given)
[10] = first of three lines per compound (lowest concentration; 10, 20, 30 mg/mL)
[11] = second of three lines per compound (middle concentration, not given)
[12] = third of three lines per compound (highest concentration, not given)

| SMILES | After transformed by intestinal bacteria [1, 6] [µg/mL] | Before transformed by intestinal bacteria [1, 7] [µg/mL] | After transformed by intestinal bacteria [1, 8] [µg/mL] | Before transformed by intestinal bacteria [1, 8] [µg/mL] | After transformed by intestinal bacteria [1, 9] [µg/mL] | Before transformed by intestinal bacteria [1, 9] [µg/mL] | transformation by intestinal bacteria (in words) [1] | absorption mechanism [2] | Papp at 180 min, 10 mg/mL [3] [×10⁻⁶ cm/s] | Papp at 180 min, 20 mg/mL [3] [×10⁻⁶ cm/s] | Papp at 180 min, 30 mg/mL [3] [×10⁻⁶ cm/s] | transport percentage ([4]; extract 10 mg/mL) [%] | transport percentage ([4]; extract 20 mg/mL) [%] | transport percentage ([4]; extract 30 mg/mL) [%] | After transported with everted gut sacs [4, 10] [µg/mL] | After transported with everted gut sacs [4, 11] [µg/mL] | After transported with everted gut sacs [4, 12] [µg/mL] | After transported with Caco-2 cell monolayers (Caco-2 cell monolayers; [10]) [µg/mL] | After transported with Caco-2 cell monolayers (Caco-2 cell monolayers; [11]) [µg/mL] | After transported with Caco-2 cell monolayers (Caco-2 cell monolayers; [12]) [µg/mL] | other results |
| --- | --- | --- | --- | --- | --- | --- | --- | --- | --- | --- | --- | --- | --- | --- | --- | --- | --- | --- | --- | --- | --- |
| O=c1cc(-c2ccc(O)c(O)c2)oc2c(C3OC(CO)C(O)C(O)C3OC3OC(CO)C(O)C(O)C3O)c(O)cc(O)c12 [2″-O-β-L-galactopyranosylorientin] | 28.06 | 26.86 | 56.34 | 56.18 | 100.57 | 104.39 | not changed | transporter mediated efflux in addition to passive diffusion | 41.1 ± 2.5 | 22.3 ± 4.1 | 46.7 ± 2.5 | 8.76 | 4.23 | 9.25 | 1.57 | 1.69 | 5.38 | 0.41 | 1.44 | 4.78 | transformation by intestinal bacteria (in words) ([1]; listed as 2″-O-β-L-Galactopyranosylorientin): not transformed; Papp at 180 min, 10 mg/mL ([5]; AP→BL): 11.1 ± 0.9 ×10⁻⁶ cm/s; Papp at 180 min, 10 mg/mL ([5]; BL→AP): 21.6 ± 2.4 ×10⁻⁶ cm/s; Papp at 180 min, 20 mg/mL ([5]; AP→BL): 19 ± 0.9 ×10⁻⁶ cm/s; Papp at 180 min, 20 mg/mL ([5]; BL→AP): 34.9 ± 0.9 ×10⁻⁶ cm/s; Papp at 180 min, 30 mg/mL ([5]; AP→BL): 40.7 ± 4 ×10⁻⁶ cm/s; Papp at 180 min, 30 mg/mL ([5]; BL→AP): 41.7 ± 2.8 ×10⁻⁶ cm/s; transport percentage (Caco-2 cell monolayers; extract 10 mg/mL, AP→BL): 13.41%; transport percentage (Caco-2 cell monolayers; extract 10 mg/mL, BL→AP): 8.72%; transport percentage (Caco-2 cell monolayers; extract 20 mg/mL, AP→BL): 22.93%; transport percentage (Caco-2 cell monolayers; extract 20 mg/mL, BL→AP): 14.08%; transport percentage (Caco-2 cell monolayers; extract 30 mg/mL, AP→BL): 49.29%; transport percentage (Caco-2 cell monolayers; extract 30 mg/mL, BL→AP): 16.83% |
| O=c1c(O[C@@H]2O[C@H](CO)[C@@H](O)[C@H](O)[C@H]2O)c(-c2ccc(O)c(O)c2)oc2cc(O)cc(O)c12 [isoquercetin] | 0.00 | 0.37 | 0.00 | 0.56 | 0.00 | 1.38 | completely transformed | – | – | – | – | – | – | – | 0.00 | 0.00 | 0.00 | 0.00 | 0.00 | 0.00 | time in which completely transformed by intestinal bacteria [1]: ≤ 24 h |
| O=c1cc(-c2ccc(O)c(O)c2)oc2c([C@@H]3O[C@H](CO)[C@@H](O)[C@H](O)[C@H]3O)c(O)cc(O)c12 [orientin] | 11.83 | 10.27 | 20.38 | 20.33 | 43.42 | 43.87 | not transformed; also recorded: not changed | transporter mediated efflux in addition to passive diffusion | 21.9 ± 2.4 | 18.5 ± 0.1 | 34 ± 3.4 | 4.67 | 3.50 | 6.75 | 0.32 | 0.49 | 1.04 | 0.33 | 0.35 | 0.82 | Papp at 180 min, 10 mg/mL ([5]; AP→BL): 25.3 ± 0.3 ×10⁻⁶ cm/s; Papp at 180 min, 10 mg/mL ([5]; BL→AP): 19.2 ± 1.4 ×10⁻⁶ cm/s; Papp at 180 min, 20 mg/mL ([5]; AP→BL): 13.5 ± 0.2 ×10⁻⁶ cm/s; Papp at 180 min, 20 mg/mL ([5]; BL→AP): 11.8 ± 0.2 ×10⁻⁶ cm/s; Papp at 180 min, 30 mg/mL ([5]; AP→BL): 19.5 ± 1.4 ×10⁻⁶ cm/s; Papp at 180 min, 30 mg/mL ([5]; BL→AP): 16.3 ± 0.6 ×10⁻⁶ cm/s; transport percentage (Caco-2 cell monolayers; extract 10 mg/mL, AP→BL): 30.53%; transport percentage (Caco-2 cell monolayers; extract 10 mg/mL, BL→AP): 7.73%; transport percentage (Caco-2 cell monolayers; extract 20 mg/mL, AP→BL): 16.39%; transport percentage (Caco-2 cell monolayers; extract 20 mg/mL, BL→AP): 4.76%; transport percentage (Caco-2 cell monolayers; extract 30 mg/mL, AP→BL): 23.54%; transport percentage (Caco-2 cell monolayers; extract 30 mg/mL, BL→AP): 6.56% |
| CC(C)NCC(O)COc1cccc2ccccc12 (centres unmarked) [propranolol, reference compound] | – | – | – | – | – | – | – | – | – | – | – | – | – | – | – | – | – | – | – | – | Papp at 180 min ([5]; Caco-2, apparent permeability coefficient (Papp), reference compounds, validation of Caco-2 monolayers): 41.2 ×10⁻⁶ cm/s |
| O=c1c(O)c(-c2ccc(O)c(O)c2)oc2cc(O)cc(O)c12 [quercetin] | 2.12 | 1.56 | 4.02 | 3.25 | 8.45 | 7.38 | not transformed | – | – | – | – | – | – | – | 0.00 | 0.00 | 0.00 | 0.00 | 0.00 | 0.00 | – |
| COc1cc(C(=O)O)cc(CC=C(C)C)c1OC1OC(CO)C(O)C(O)C1O (centres unmarked) [trollioside] | 0.00 | 5.62 | 0.00 | 12.76 | 0.00 | 26.84 | completely transformed | – | – | – | – | – | – | – | 0.00 | 0.00 | 0.00 | 0.00 | 0.00 | 0.00 | time in which completely transformed by intestinal bacteria [1]: ≤ 24 h |
